Patent publication US20250034159A1, “INHIBITORS OF EPIDERMAL GROWTH FACTOR RECEPTOR” (ORIC Pharmaceuticals, Inc., priority 2021, published 2025)
Like-named read-outs stand apart in the source and are kept apart here.

What was measured:
[1] = target: recombinant human EGFR exon 19 deletion/C797S double mutant protein (Homo sapiens (Human), UniProt P00533, C797S/DEL746-750); assay: Biological Activity Assay C: biochemical assay against EGFR exon 19 deletion/C797S protein (EGFR d19/CS)
Procedure: In Row A of a 384-well polypropylene plate, was added 48 μL of DMSO. In wells A1 and A24, were added 12 μL of DMSO. […] To a well in Row A were added 12 μL of each 10 mM test compound stock (100% DMSO). […] The final intermediate dilution plate contained 4×16-point compound serial dilutions in assay buffer. The DMSO concentration was 10%. The intermediate compound dilution plate was transferred to the Bravo and the “5 uL dispense into ARP.pro” protocol was run. To the black low volume assay ready plates, were added 5 μL of 40 uM Phosphosens peptide sensor/4 mM ATP working solution to each well. […] To column 24, was added 10 μL of assay buffer. The final DMSO concentration was 2.5%. […] The plates were sealed with the TopSeal-A Plus plate seals. […] Set for 90 cycles with 120 second interval. […] The slope of each curve was constructed using Dotmatics in each well, and each IC50s was calculated using a 4-parameter fit model.

Ba/F3_EGFR WT cells = assay: Biological Activity Assay D: BaF3 cell proliferation assay, EGFR wild-type (BaF3 WT); format: cell-based; settings: Ba/F3 EGFR, read-out: BaF3 WT IC50
Procedure: (§1) One frozen vial of cells should be thawed into one T25 flask in 10 mL media. Keep the flask upright in the incubator.
(§2) Method: One frozen vial of cells was thawed into one T25 flask in 10 mL media and the flask was kept upright in the incubator. Cells were split 1:10 every two to three days when cells reached confluency of around 1×10^6 cells/mL. Bravo protocol files were used with Greiner 384-well plates for all steps of compound preparation, cell plating and compound addition. […] 16 μL of DMSO were added (for compounds starting at 20 μM) or 28 μL DMSO (for compounds starting at 5 μM) to 96-well V-bottom polypropylene plate: wells 1A-1H (8 compounds/plate). […] 20 μL DMSO were added to the remainder of the wells (columns 2-12) in the 96-well V-bottom plate. A Bravo liquid handler was used to make 1:3 serial dilutions from columns 1 to 11 (12 remains as DMSO only) to prepare the DMSO dilution plate. 144 μL media were added to each well of a new 96-well V-bottom polypropylene plate to prepare the intermediate dilution plate. A Bravo or 96-head Integra liquid handler was used to add and mix 6 μL of test compound from the DMSO dilution plate to the intermediate dilution plate. (1:25 dilution). Cells were transferred from a flask into a 50 mL conical, vortex gently and the number of cells were counted, with a target cell number of about 1×10^6 cells per mL. The cells were diluted in culture medium in 50 mL conical or T25 flask, and the cell suspension was added to BRAVO reservoir and then use Bravo protocol to plate the appropriate number of cells shown below in 36 μl of medium per well as follows: Ba/F3-WT-EGFR 2000 cells per well of a 384 well plate; Ba/F3-LR/CS-EGFR 2000 cells per well of a 384 well plate; and Ba/F3-d19/CS-EGFR 1500 cells per well of a 384 well plate. An extra 10 mL of dead volume was utilized in each reservoir.
(§3) Using a Bravo liquid handler, 4 μl of test compound solution was added per well from the intermediate dilution plate to plated cells (1:10 dilution from the intermediate plate, final compound dilution 1:250 and final DMSO concentration per well is 0.4%). Using the 96 BRAVO Head, 25 μl were aspirated from the intermediate dilution plate and 4 μl each were dispensed into 4 wells (square pattern) in the 384-well plate. Any remaining test compound is dispensed into a secondary plate to prevent cross contamination of cells in the intermediate compound plate. After the compounds were added, the plate was shaken at 600 rpm gently for 60 see, and the plates were incubated in a tissue culture incubator, 37° C., 5% CO2, for ˜ 72 hours. After incubation, CTG 2.0 reagent was allowed to equilibrate to room temperature (˜3 hours) and cells to reach room temperature (˜10-15 minutes) and reagent was added to cells (40 μL/well) using a Bravo liquid handler. The plates were shaken to allow proper mixing (˜5 min) and let settle for 10 minutes and were read on Tecan plate reader using the appropriate luminescence method. Data from plate reader was transferred to an excel file and entered directly into Dotmatics using the protocols under EGFR Project/Cell Proliferation/named: “BaF3_EGFRwt_CP”, “BaF3_EGFR_d19/CS_CP”, “BaF3_EGFR_LR/CS_CP”. Curves were fit with a 4-parameter model and IC50s calculated by the Dotmatics software. DMSO wells were averaged to define the high control (100% growth). The average of the highest concentration of the positive control compound (afatinib) was used to define the 0% growth and used to lock the bottom of the curves. The tops of the curves were not fixed.

BaF3_EGFR LR/CS cells = assay: Biological Activity Assay D: BaF3 cell proliferation assay, EGFR L858R/C797S mutant (BaF3 LR/CS); format: cell-based; settings: Ba/F3 EGFR, read-out: BaF3 LR/CS IC50
Procedure: as §1, §2, §3

BaF3_EGFR d19/CS cells = assay: Biological Activity Assay D: BaF3 cell proliferation assay, EGFR exon 19 deletion/C797S (BaF3 d19/CS); format: cell-based; settings: Ba/F3 EGFR, read-out: BaF3 d19/CS IC50
Procedure: as §1, §2, §3

[2] = Ba/F3_EGFR WT cells, ~72 hours, CellTiter-Glo
[3] = BaF3_EGFR LR/CS cells, ~72 hours, CellTiter-Glo
[4] = BaF3_EGFR d19/CS cells, ~72 hours, CellTiter-Glo

recombinant human EGFR exon 19 deletion/C797S double mutant protein, sequence (P00533 other isoform, or with tags, fused parts or gaps C797S/del 1-668/del 746-750 limits assumed): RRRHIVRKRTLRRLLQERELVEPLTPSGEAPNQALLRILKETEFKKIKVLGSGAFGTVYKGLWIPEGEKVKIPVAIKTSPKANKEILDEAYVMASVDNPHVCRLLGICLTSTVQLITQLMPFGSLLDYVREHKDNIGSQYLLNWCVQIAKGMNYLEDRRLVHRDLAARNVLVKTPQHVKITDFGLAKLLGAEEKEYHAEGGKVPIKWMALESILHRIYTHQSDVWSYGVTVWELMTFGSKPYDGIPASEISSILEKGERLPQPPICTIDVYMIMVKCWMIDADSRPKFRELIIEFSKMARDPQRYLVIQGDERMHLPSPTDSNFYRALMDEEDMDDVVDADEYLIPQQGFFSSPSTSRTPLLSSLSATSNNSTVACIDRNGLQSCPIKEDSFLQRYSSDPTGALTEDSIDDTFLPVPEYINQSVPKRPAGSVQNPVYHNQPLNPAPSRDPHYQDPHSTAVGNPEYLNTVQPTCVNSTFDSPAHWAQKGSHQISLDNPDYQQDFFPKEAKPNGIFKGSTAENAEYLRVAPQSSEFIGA

Row | Compound | IC50 [1] | IC50 (Ba/F3_EGFR WT cells; [2]) | IC50 (BaF3_EGFR LR/CS cells; [3]) | IC50 (BaF3_EGFR d19/CS cells; [4]) | IC50 (Ba/F3_EGFR WT cells; 72 h) | IC50 (BaF3_EGFR LR/CS cells; 72 h) | IC50 (BaF3_EGFR d19/CS cells; 72 h)
1 | CC(=O)NCCn1cc(-c2ncnc3oc(-c4ccccc4)cc23)c(-c2ccc(F)cc2)n1 [Example 134, N-{2-[3-(4-Fluorophenyl)-4-(6-phenylfuro[2,3-d]pyrimidin-4-yl)-1H-pyrazol-1-yl]ethyl}acetamide] | 0.3 nM | – | – | – | 1030 nM | 33.3 nM | 57.1 nM
2 | O=S1(=O)CC(n2cc(-c3ncnc4[nH]c(-c5ccccc5)nc34)c(-c3ccc(F)cc3)n2)C1 [Example 127, 3-[3-(4-Fluorophenyl)-4-(8-phenyl-9H-purin-6-yl)-1H-pyrazol-1-yl]-1λ6-thietane-1,1-dione] | 0.09 nM | 3680 nM | 15.8 nM | 24.6 nM | – | – | –
3 | CC(=O)N1CCC=C(c2cc3c(-c4cn(CC(C)(C)O)nc4-c4ccc(F)cc4)ncnc3o2)C1 [Example 208, 1-[5-{4-[3-(4-fluorophenyl)-1-(2-hydroxy-2-methylpropyl)-1H-pyrazol-4-yl]furo[2,3-d]pyrimidin-6-yl}-3,6-dihydropyridin-1 (2H)-yl]ethan-1-one] | 0.4 nM | 1680 nM | 155 nM | 95.7 nM | – | – | –
4 | Fc1ccc(-c2nn([C@H]3CCOC[C@@H]3F)cc2-c2ncnc3oc(-c4ccccc4)cc23)cc1 (single isomer, unassigned) [Example 152] | 1.33 nM | 2020 nM | 22.5 nM | 88.9 nM | – | – | –
5 | CN1CC[C@H](n2cc(-c3ncnc4oc(-c5ccccc5)cc34)c(-c3ccc(F)cc3)n2)C1=O (single isomer, unassigned) [Example 167] | 0.83 nM | 1640 nM | 32.8 nM | 162 nM | – | – | –
6 | C[C@@H]1OCC[C@H]1n1cc(-c2ncnc3oc(-c4ccccc4)cc23)c(-c2ccc(F)cc2)n1 (racemic) [Example 199, 2,5-anhydro-1,3,4-trideoxy-3-[3-(4-fluorophenyl)-4-(6-phenylfuro[2,3-d]pyrimidin-4-yl)-1H-pyrazol-1-yl]pentitol] | 0.92 nM | 3340 nM | 85.4 nM | 294 nM | – | – | –
7 | CC(C)(O)Cn1cc(-c2ncnc3oc(-c4ccccc4Cl)cc23)c(-c2ccc(F)cc2)n1 [Example 262, 1-{4-[6-(2-chlorophenyl)furo[2,3-d]pyrimidin-4-yl]-3-(4-fluorophenyl)-1H-pyrazol-1-yl}-2-methylpropan-2-ol] | 0.396 nM | 4060 nM | 78.2 nM | 47 nM | – | – | –
8 | O=S1(=O)CC(n2cc(-c3ncnc4oc(-c5cnccn5)cc34)c(-c3ccc(F)cc3)n2)C1 [Example 188, 3-{3-(4-fluorophenyl)-4-[6-(pyrazin-2-yl)furo[2,3-d]pyrimidin-4-yl]-1H-pyrazol-1-yl}-1λ6-thietane-1,1-dione] | 2.23 nM | 11700 nM | 489 nM | 246 nM | – | – | –
9 | OCCCn1cc(-c2ccnc3cc(-c4ccccc4)[nH]c23)c(-c2ccc(F)cc2)n1 [Example 7, 3-[3-(4-Fluorophenyl)-4-(2-phenyl-1H-pyrrolo[3,2-b]pyridin-7-yl)-1H-pyrazol-1-yl]propan-1-ol] | – | 4710 nM | 694 nM | 508 nM | – | – | –
10 | Fc1ccc(-n2nccc2-c2ccnc3[nH]c(-c4ccccc4)cc23)cc1 [Example 1, 4-[1-(4-fluorophenyl)-1H-pyrazol-5-yl]-2-phenyl-1H-pyrrolo[2,3-b]pyridine] | – | 2570 nM | 349 nM | 211 nM | – | – | –
11 | O=S1(=O)CCC(n2cc(-c3ncnc4oc(-c5ccccc5)cc34)c(-c3ccc(F)cc3)n2)CC1 [Example 83, 4-[3-(4-fluorophenyl)-4-(6-phenylfuro[2,3-d]pyrimidin-4-yl)-1H-pyrazol-1-yl]-1λ6-thiane-1,1-dione] | – | > 20000 nM | 529 nM | 640 nM | – | – | –
12 | [2H]C([2H])([2H])n1cc(-c2ncnc3oc(-c4ccccc4)cc23)c(-c2ccc(F)cc2)n1 [Example 48, 4-[3-(4-Fluorophenyl)-1-(2H3)methyl-1H-pyrazol-4-yl]-6-phenylfuro[2,3-d]pyrimidine] | – | – | – | – | 2210 nM | 60.4 nM | 47.9 nM
13 | Cn1cc(-c2ncnc3oc(-c4ccccc4)cc23)c(-c2ccc(F)cc2)n1 [Example 63, 4-[3-(4-Fluorophenyl)-1-methyl-1H-pyrazol-4-yl]-6-phenylfuro[2,3-d]pyrimidine] | – | – | – | – | 1270 nM | 35.4 nM | 48.5 nM

The next lines start with results.

Row | IC50 [1] | IC50 (Ba/F3_EGFR WT cells; [2]) | IC50 (BaF3_EGFR LR/CS cells; [3]) | IC50 (BaF3_EGFR d19/CS cells; [4]) | Compound | IC50 (Ba/F3_EGFR WT cells; 72 h) | IC50 (BaF3_EGFR LR/CS cells; 72 h) | IC50 (BaF3_EGFR d19/CS cells; 72 h)
14 | 0.26 nM | 1090 nM | 20.6 nM | 37 nM | O=S1(=O)CC(n2cc(-c3ncnc4oc(-c5ccncc5)cc34)c(-c3ccc(F)cc3)n2)C1 [Example 165, 3-{3-(4-fluorophenyl)-4-[6-(pyridin-4-yl)furo[2,3-d]pyrimidin-4-yl]-1H-pyrazol-1-yl}-1λ6-thietane-1,1-dione] | – | – | –
15 | – | 724 nM | 89.5 nM | 104 nM | OCCCc1nc(-c2ccnc3[nH]c(-c4ccccc4)cc23)n(-c2ccc(F)cc2)n1 [Example 2, 3-[1-(4-Fluorophenyl)-5-(2-phenyl-1H-pyrrolo[2,3-b]pyridin-4-yl)-1H-1,2,4-triazol-3-yl]propan-1-ol] | – | – | –
16 | 0.26 nM | 1380 nM | 73.3 nM | 68.6 nM | NC(=O)CCCn1cc(-c2ncnc3oc(-c4ccccc4)cc23)c(-c2ccc(F)cc2)n1 [Example 147, 4-[3-(4-Fluorophenyl)-4-(6-phenylfuro[2,3-d]pyrimidin-4-yl)-1H-pyrazol-1-yl]butanamide] | – | – | –
17 | – | 1590 nM | 15.2 nM | 40.8 nM | Fc1ccc(-c2nn(CCC(F)F)cc2-c2ccnc3oc(-c4ccccc4)cc23)cc1 [Example 157, 4-[1-(3,3-difluoropropyl)-3-(4-fluorophenyl)-1H-pyrazol-4-yl]-2-phenylfuro[2,3-b]pyridine] | – | – | –
18 | – | 1590 nM | 42 nM | 56.4 nM | O=S1(=O)CC(n2cc(-c3ncnc4oc(C5=CCN(S(=O)(=O)C6CC6)CC5)cc34)c(-c3ccc(F)cc3)n2)C1 [Example 177, 3-[4-{6-[1-(cyclopropanesulfonyl)-1,2,3,6-tetrahydropyridin-4-yl]furo[2,3-d]pyrimidin-4-yl}-3-(4-fluorophenyl)-1H-pyrazol-1-yl]-1λ6-thietane-1,1-dione] | – | – | –
19 | – | 1610 nM | 33.6 nM | 89.6 nM | Fc1ccc(-c2nn(CCOC(F)(F)F)cc2-c2ncnc3oc(-c4ccccc4)cc23)cc1 [Example 144, 4-{3-(4-Fluorophenyl)-1-[2-(trifluoromethoxy)ethyl]-1H-pyrazol-4-yl}-6-phenylfuro[2,3-d]pyrimidine] | – | – | –
